Laboratory results as given in patent US8318769B2, “Substituted sulfonamide compounds” (Gruenethal GmbH, priority 2008, dated 2012).
Like-named read-outs stand apart in the source and are kept apart here.

Assays:
[1] = target: T1, human bradykinin 1 receptor (B1R) (Homo sapiens, UniProt P46663); assay: FLIPR Ca2+ assay, B1R antagonism, human; format: cell-based
T1 construct: expressed in transfected cells
T1 sequence (P46663 1-353): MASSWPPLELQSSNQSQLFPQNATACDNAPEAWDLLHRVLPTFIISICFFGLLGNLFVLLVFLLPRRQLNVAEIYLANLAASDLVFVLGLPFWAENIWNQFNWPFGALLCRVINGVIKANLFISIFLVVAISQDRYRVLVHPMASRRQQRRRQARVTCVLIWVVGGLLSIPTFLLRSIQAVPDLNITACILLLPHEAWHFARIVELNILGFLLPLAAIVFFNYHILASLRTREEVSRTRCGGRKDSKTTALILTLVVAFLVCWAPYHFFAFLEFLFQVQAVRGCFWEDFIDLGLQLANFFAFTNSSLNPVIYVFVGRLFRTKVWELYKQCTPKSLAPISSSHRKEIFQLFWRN
Method: The agonistic or antagonistic action of substances can be quantified on the bradykinin 1 receptor (B1R) of the human and rat species with ectopically expressing cell lines (CHO K1 cells) and with the aid of a Ca^2+-sensitive dyestuff (Fluo-4) in a fluorescent imaging plate reader (FLIPR). The figure in % activation is based on the Ca^2+ signal after addition of Lys-Des-Arg^9-bradykinin (0.5 nM) or Des-Arg^9-bradykinin (100 nM). Antagonists lead to a suppression of the Ca^2+ inflow after addition of the agonist. % inhibition compared with the maximum achievable inhibition is stated.
The agonistic or antagonistic action of substances can be determined on the bradykinin 1 receptor (B1R) of the human and rat species with the following assay. In accordance with this assay, the Ca^2+ inflow through the channel is quantified with the aid of a Ca^2+-sensitive dyestuff (type Fluo-4, Molecular Probes Europe BV, Leiden, Holland) in a fluorescent imaging plate reader (FLIPR, Molecular Devices, Sunnyvale, USA).
Chinese hamster ovary cells (CHO K1 cells) transfected stably with the human B1R gene (hB1R cells) or the B1R gene of the rat (rB1R cells) are used. For functional studies, these cells are plated out on black 96-well plates with a clear base (BD Biosciences, Heidelberg, Germany or Greiner, Frickenhausen, Germany) in a density of 20,000-35,000 cells/well. The cells are left overnight at 37° C. and 5% CO2 in culture medium (hB1R cells: Nutrient Mixture Ham's F12, Gibco Invitrogen GmbH, Karlsruhe, Germany or DMEM, Sigma-Aldrich, Taufkirchen, Germany; rB1R cells: D-MEM/F12, Gibco Invitrogen GmbH, Karlsruhe, Germany) with 10 vol. % FBS (foetal bovine serum, Gibco Invitrogen GmbH, Karlsruhe, Germany or PAN Biotech GmbH, Aidenbach, Germany).
On the following day, the cells are loaded for 60 min at 37° C. with 2.13 μM Fluo-4 (Molecular Probes Europe BV, Leiden, Holland) in HBSS buffer (Hank's buffered saline solution, Gibco Invitrogen GmbH, Karlsruhe, Germany) with 2.5 mM probenecid (Sigma-Aldrich, Taufkirchen, Germany) and 10 mM HEPES (Sigma-Aldrich, Taufkirchen, Germany). The plates are then washed 2× with HBSS buffer, and HBSS buffer which additionally contains 0.1% BSA (bovine serum albumin; Sigma-Aldrich, Taufkirchen, Germany), 5.6 mM glucose and 0.05% gelatine (Merck KGaA, Darmstadt, Germany) is added. After a further incubation of 20 minutes at room temperature, the plates are inserted into the FLIPR for the Ca^2+ measurement.
Alternatively, the plates are washed with buffer A (15 mM HEPES, 80 mM NaCl, 5 mM KCl, 1.2 mM CaCl2, 0.7 mM MgSO4, 2 g/l glucose, 2.5 mM probenecid), buffer A is added and the plates are loaded with 2.5 μM Fluo-4 and 0.025% Pluronic F127 (Sigma-Aldrich, Taufkirchen, Germany). Thereafter, the cells are washed 2× with buffer A and incubated for 30 minutes with buffer A, which additionally contains 0.05% BSA and 0.05% gelatine, at room temperature and thereafter inserted into the FLIPR for the Ca^2+ measurement.
The Ca^2+-dependent fluorescence is measured here before and after addition of substances (λex=488 nm, λem=540 nm). Quantification is by measurement of the highest fluorescence intensity (FC, fluorescence counts) over time.
The FLIPR protocol consists of 2 additions of substance. Test substances (10 μM) are first pipetted on to the cells and the Ca^2+ inflow is compared with the control (hB1R: Lys-Des-Arg^9-bradykinin >=50 nM; rB1R: Des-Arg^9-bradykinin 10 μM). This gives the figure in % activation based on the Ca^2+ signal after addition of Lys-Des-Arg^9-bradykinin (>=50 nM) or Des-Arg^9-bradykinin (10 μM).
After incubation for 10-20 minutes, Lys-Des-Arg^9-bradykinin (hB1R) or Des-Arg^9-bradykinin (rB1R) in the concentration of the EC80 is applied and the inflow of Ca^2+ is likewise determined. Antagonists lead to a suppression of the Ca^2+ inflow. % inhibition compared with the maximum achievable inhibition is calculated. […]

[2] = target: T2, bradykinin 1 receptor (B1R) of the rat (Rattus norvegicus, UniProt P97583); assay: FLIPR Ca2+ assay, B1R antagonism, rat; format: cell-based
T2 construct: expressed in transfected cells
T2 sequence (P97583 1-337): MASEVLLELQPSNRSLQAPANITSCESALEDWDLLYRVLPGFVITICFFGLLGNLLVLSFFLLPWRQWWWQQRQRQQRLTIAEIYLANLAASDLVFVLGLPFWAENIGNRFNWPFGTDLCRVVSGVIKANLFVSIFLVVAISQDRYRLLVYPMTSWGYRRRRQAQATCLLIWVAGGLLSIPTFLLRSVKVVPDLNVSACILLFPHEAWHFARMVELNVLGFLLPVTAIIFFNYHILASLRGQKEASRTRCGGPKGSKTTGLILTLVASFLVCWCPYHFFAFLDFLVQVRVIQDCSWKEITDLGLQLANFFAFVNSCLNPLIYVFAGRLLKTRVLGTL
Summary of the method: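 Antagonism is given as % of maximum achievable suppression of agonist-evoked Ca2+ influx, measured by Fluo-4 peak fluorescence in FLIPR. Stable hB1R or rB1R CHO K1 lines received 10 μM compound for 10-20 min before EC80 Lys-Des-Arg9-bradykinin (human) or Des-Arg9-bradykinin (rat).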

[3] = 10 μM test substance, CHO K1 cells with human B1R gene (hB1R cells), Lys-Des-Arg9-bradykinin at EC80, % inhibition compared with the maximum achievable inhibition, read-out: B1R antagonism, human [10 μM] % inhibition
[4] = CHO-K1, 10 μM test substance, CHO K1 cells with rat B1R gene (rB1R cells), Des-Arg9-bradykinin at EC80, % inhibition compared with the maximum achievable inhibition, read-out: B1R antagonism, rat [10 μM] % inhibition

inhibition at 10 µM [1, 3] [%] | inhibition at 10 µM [2, 4] [%] | SMILES | also measured
100 | 102 | COc1cc(C)c(S(=O)(=O)N2CCCC[C@H]2COCC(=O)N2CCC(OCCn3ccnc3)(c3cccnc3)CC2)c(C)c1 [Example 60, 1-[4-[2-(1H-imidazol-1-yl)-ethoxy]-4-pyridin-3-yl-piperidin-1-yl]-2-[[(2S)-1-[(4-methoxy-2,6-dimethyl-phenyl)sulfonyl]-piperidin-2-yl]-methoxy]-ethanone] | –
100 | 102 | COc1cc(C)c(S(=O)(=O)N2CCCCC2CCCC(=O)N2CCC(OCCN3CCCC3)(c3ccncc3)CC2)c(C)c1 (centres unmarked) [Example 90, 4-[1-[(4-methoxy-2,6-dimethyl-phenyl)sulfonyl]-piperidin-2-yl]-1-[4-pyridin-4-yl-4-(2-pyrrolidin-1-yl-ethoxy)-piperidin-1-yl]-butan-1-one] | –
103 | 52 | O=C(CC(NS(=O)(=O)c1ccc2ccccc2c1)c1ccccc1)N1CCC(OCCN2CCCCC2)(c2cccnc2)CC1 (centres unmarked) [Example 11, N-(3-oxo-1-phenyl-3-(4-(2-(piperidin-1-yl)ethoxy)-4-(pyridin-3-yl)piperidin-1-yl)propyl)naphthalene-2-sulfonamide] | –
83 | 101 | O=C(CC(NS(=O)(=O)c1ccc2ccccc2c1)c1ccccc1)N1CCC(OCCCN2CCCCC2)(c2cccnc2)CC1 (centres unmarked) [Example 27, N-(3-oxo-1-phenyl-3-(4-(3-(piperidin-1-yl)propoxy)-4-(pyridin-3-yl)piperidin-1-yl)propyl)naphthalene-2-sulfonamide] | –
100 | 99 | COc1cc(C)c(S(=O)(=O)N(C)CCOCC(=O)N2CCC(OCCN3CCCC3)(c3cccc(F)c3)CC2)c(C)c1C [Example 114, N-[2-[2-[4-(3-fluorophenyl)-4-(2-pyrrolidin-1-yl-ethoxy)-piperidin-1-yl]-2-oxo-ethoxy]-ethyl]-4-methoxy-N,2,3,6-tetramethyl-benzenesulfonic acid amide] | –
86 | 67 | Cc1cc(S(=O)(=O)N2CCCCC2CCC(=O)N2CCC(OCCCN3CCCC3)(c3cccnc3)CC2)c(C)cc1Cl (centres unmarked) [Example 43, 3-(1-(4-chloro-2,5-dimethylphenylsulfonyl)piperidin-2-yl)-1-(4-(pyridin-3-yl)-4-(3-(pyrrolidin-1-yl)propoxy)piperidin-1-yl)propan-1-one] | –
100 | 103 | COc1cc(C)c(S(=O)(=O)N2CCCC[C@H]2COCC(=O)N2CCCC(OCCN3CCCC3)(c3cccnc3)CC2)c(C)c1 (stereo partly drawn) [Example 55, 2-[[(2S)-1-[(4-methoxy-2,6-dimethyl-phenyl)sulfonyl]-piperidin-2-yl]-methoxy]-1-[4-pyridin-3-yl-4-(2-pyrrolidin-1-yl-ethoxy)-azepan-1-yl]-ethanone] | –
99 | 97 | COc1cc(C)c(S(=O)(=O)N(CCOCC(=O)N2CCC(OCCN3CCCC3)(c3cccc(F)c3)CC2)c2ccccc2)c(C)c1 [Example 99, N-[2-[2-[4-(3-fluorophenyl)-4-(2-pyrrolidin-1-yl-ethoxy)-piperidin-1-yl]-2-oxo-ethoxy]-ethyl]-4-methoxy-2,6-dimethyl-N-phenyl-benzenesulfonic acid amide] | –
– | – | O=C(COCC1CCCCN1S(=O)(=O)c1ccccc1C(F)(F)F)N1CCC(OCCN2CCCC2)(c2cccnc2)CC1 (centres unmarked) [Example 117, 1-[4-pyridin-3-yl-4-(2-pyrrolidin-1-yl-ethoxy)-piperidin-1-yl]-2-[[1-[[2-(trifluoromethyl)-phenyl]sulfonyl]-piperidin-2-yl]-methoxy]-ethanone] | B1R antagonism, human [10 μM] % inhibition ([1]; 10 μM test substance, CHO K1 cells with human B1R gene (hB1R cells), Lys-Des-Arg9-bradykinin at EC80, % inhibition compared with the maximum achievable inhibition): 100%; B1R antagonism, rat [10 μM] % inhibition ([2]; 10 μM test substance, CHO K1 cells with rat B1R gene (rB1R cells), Des-Arg9-bradykinin at EC80, % inhibition compared with the maximum achievable inhibition, 10 µM): 103%
100 | 102 | Cc1cccc(Cl)c1S(=O)(=O)N(CCOCC(=O)N1CCC(OCC[N+]2([O-])CCCC2)(c2cccc(F)c2)CC1)C1CC1 [Example 53, 2-chloro-N-cyclopropyl-N-[2-[2-[4-(3-fluorophenyl)-4-[2-(1-oxido-pyrrolidin-1-ium-1-yl)-ethoxy]-piperidin-1-yl]-2-oxo-ethoxy]-ethyl]-6-methyl-benzenesulfonic acid amide] | –
76 | 103 | O=C(COCC1CCc2ccccc2N1S(=O)(=O)c1ccc(Cl)c(Cl)c1)N1CCC(OCCCN2CCCC2)(c2cccnc2)CC1 (centres unmarked) [Example 45, 2-((1-(3,4-dichlorophenylsulfonyl)-1,2,3,4-tetrahydroquinolin-2-yl)methoxy)-1-(4-(pyridin-3-yl)-4-(3-(pyrrolidin-1-yl)propoxy)piperidin-1-yl)ethanone] | –
– | – | O=C(COCCN(C(c1ccccc1)c1ccccc1)S(=O)(=O)c1ccc(Cl)cc1Cl)N1CCC(OCCN2CCCC2)(c2cccnc2)CC1 [Example 4, N-benzhydryl-2,4-dichloro-N-(2-(2-oxo-2-(4-(pyridin-3-yl)-4-(2-(pyrrolidin-1-yl)ethoxy)piperidin-1-yl)ethoxy)ethyl)benzenesulfonamide] | inhibition at 10 µM ([1]; CHO-K1, read-out: B1R antagonism, human [10 μM] % inhibition): 99%; inhibition at 10 µM ([2]; CHO-K1, read-out: B1R antagonism, rat [10 μM] % inhibition): 98%
100 | 97 | O=C(COCC1CCCCN1S(=O)(=O)c1ccccc1C(F)(F)F)N1CCC(OCCN2CCCC2)(c2cccc(F)c2)CC1 (centres unmarked) [Example 118, 1-[4-(3-fluorophenyl)-4-(2-pyrrolidin-1-yl-ethoxy)-piperidin-1-yl]-2-[[1-[[2-(trifluoromethyl)-phenyl]sulfonyl]-piperidin-2-yl]-methoxy]-ethanone] | –
